# Assay results from patent US6699682B2, “Assay for inhibitors of fatty-acid amide hydrolase” (The Scripps Research Institute, priority 1995, dated 2004).
# Columns and labels:
# male Sprague-Dawley rats = assay: polysomnographic sleep recordings (EEG/EMG) in rats; assay type: in vivo, rat; conditions: 10 mg ip, recorded four hours
# Text: We have compared cis-9,10-octadecenoamide to vehicle and the synthetic analogs listed in FIG. 1 to estimate the structural specificity of its sleep-inducing potential. […] More particularly, male Sprague-Dawley rats (300 g at the time of surgery) were implanted under halothane anesthesia (2-3%) with a standard set of electrodes for sleep recordings. This included two screw electrodes placed in the parietal bone over the hippocampus to record the subjects electroencephalogram (EEG) and two wire electrodes inserted in the neck musculature to record postural tone through electromyographic activity (EMG). Rats were housed individually with at libitum access to food and water. The dark-light cycle was controlled (12:12, lights on a 10:00 p.m.). One week after the surgery, rats were habituated to the recording conditions for at least three days. Upon the completion of the habituation period, rats received 2 milliliter (ip) of either: vehicle (5% ethanol/saline solution), cis-9,10-octadecenoamide (10 mg), or oleic acid (10 mg). […] Sleep recordings were visually scored and four stages were determined: wakefulness, slow-wave-sleep 1 (SWS1), slow-wave-sleep 2 (SWS2), and rapid eye movement (REM) sleep.
# These increases with respect to slow wave sleep (SWS) were at the expense of waking.
# [1] = target: T1, FAAH activity of a rat brain membrane fraction (Rattus norvegicus, UniProt P97612); assay type: biochemical; conditions: rat brain membrane fractions, TLC
# T1 construct: Cis-9,10-octadecenoamide with rat brain membrane fraction +1 mM phenylmethylsulfonyl fluoride (PMSF); from tissue; host or cells: rat brain membrane fraction
# T1 sequence (P97612 1-579): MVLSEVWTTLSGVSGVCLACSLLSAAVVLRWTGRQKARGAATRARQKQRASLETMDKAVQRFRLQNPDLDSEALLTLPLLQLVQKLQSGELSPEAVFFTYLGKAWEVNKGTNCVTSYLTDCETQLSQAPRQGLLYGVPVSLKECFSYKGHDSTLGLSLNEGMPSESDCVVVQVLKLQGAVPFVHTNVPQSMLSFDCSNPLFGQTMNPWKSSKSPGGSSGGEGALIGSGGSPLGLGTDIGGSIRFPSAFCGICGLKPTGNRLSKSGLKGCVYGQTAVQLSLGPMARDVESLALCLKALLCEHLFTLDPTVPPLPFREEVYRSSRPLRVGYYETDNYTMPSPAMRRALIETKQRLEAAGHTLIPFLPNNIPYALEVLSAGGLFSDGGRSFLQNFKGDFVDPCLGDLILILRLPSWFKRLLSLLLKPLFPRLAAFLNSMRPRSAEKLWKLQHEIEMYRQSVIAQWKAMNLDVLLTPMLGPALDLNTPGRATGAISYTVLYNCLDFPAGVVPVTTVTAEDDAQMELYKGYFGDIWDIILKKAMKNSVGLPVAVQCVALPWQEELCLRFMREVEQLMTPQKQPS
# Protocol: In each case the enzymic reaction is performed is a separate reaction vessel and the product is spotted onto a TLC plate.
# [2] = target: T2, recombinant expressed rat FAAH (Rattus norvegicus, UniProt P97612); assay: FAAH hydrolysis assays with 14C-labeled fatty acid amide substrates (TLC, scintillation counting); assay type: biochemical; conditions: for Rate of Hydrolysis: 35 μg transfected COS-7 cell protein, 5 minutes, 37° C.
# T2 construct: expressed in transfected cells; host or cells: COS-7 cells, transient, pcDNA3; dounce-homogenised cell extract
# T2 sequence (P97612 1-579): T1 sequence (P97612 1-579)
# Protocol: Therefore, COS-7 cells transfected with the rat FAAH cDNA were assayed for anandamide hydrolase activity. To assess the enzymatic activity of the expressed recombinant fatty acid amide hydrolases of this invention on labeled anandamide, the following enzymatic assay was performed. ^14C-anandamide was synthesized as follows: 12.5 μCi (specific activity of 50 μCi/μM) of ^14C arachidonic acid (Moravek Biochemicals) was dissolved in 100 μl CH2Cl2, cooled to 0° C., and treated with excess oxalyl chloride. The reaction mixture was stirred at 25° C. for 6 hours, after which time the solvent was evaporated. The remaining residue was cooled to 0° C., treated with a large excess of ethanolamine, and stirred at 25° C. for 15 minutes. The reaction mixture was then partitioned between ethyl acetate and 2 M HCl, and the organic layer was washed with water and then evaporated to dryness. The resulting ^14C-anandamide was diluted with unlabeled anandamide to a final specific activity of 5 μCi/μM in ethanol. Approximately 1 μCi of ^14C-anandamide and 20 μl of dounce homogenized COS-7 cell extract were used for each anandamide hydrolase assay as detailed above for the oleamide hydrolase assays. Briefly, FAAH hydrolysis assays were conducted in triplicate with 100 μM substrate, 35 μg of rat transfected COS-7 cell protein for 5 minutes at 37° C. (except in the case of stearic amide, where due to low solubility, 20 μM substrate comparison to oleamide were conducted). Products were separated on TLC as described previously, scraped into scintillation fluid, and radioactivity was quantitated by scintillation counting. Substrate hydrolysis in the presence of equal amounts of untransfected COS-7 cell protein extract served as background control in all cases and was substracted from FAAH hydrolysis rates to give the data as presented below.
# To further assess the substrate specificity spectrum of enyzmatic hydolytic activity of the recombinant expressed proteins of this invention, other ^14C-labeled fatty acid amides were synthesized as described in Section B6 and above for ^14C-oleamide, with the exception of anandamide as described.
# Where indicated in the table the anandamide and oleamide hydrolysis rates are considered to be 100% of FAAH activity to which other fatty acid amide hydrolysis rates are compared.
compound,measurement,setting,value
"CCCCCCCC/C=C\CCCCCCCC(N)=O [cis-9,10-octadecenoamide, Cis-9,10-octadecenoamide]",distribution of REM sleep,male Sprague-Dawley rats,does not seem to be altered
same,mean duration of the SWS individual periods compared to vehicle controls,male Sprague-Dawley rats,increase
same,total time of slow wave sleep (SWS) compared to vehicle controls,male Sprague-Dawley rats,increase in the total time of slow wave sleep (SWS)
same,"conversion of 14C-cis-9,10-octadecenoamide to oleic acid",[1],Rapid conversion
same,rate difference between hydrolysis of oleamide and stearic amide,[2],nearly twenty fold
same,% of FAAH activity (oleamide hydrolysis rate = 100%),[2]; 20 μM substrate,100%
same,Rate of Hydrolysis,[2]; 20 μM substrate,41 ± 2 nmol/min/mg
same,% of FAAH activity (anandamide hydrolysis rate = 100%),[2]; 100 μM substrate,72.6%
same,Rate of Hydrolysis,[2]; 100 μM substrate,242 ± 20 nmol/min/mg
